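Interpolation was linear, between the two tested concentrations surrounding the appropriate level; five concentrations were tested over 48 hours in 96-well plates. GI50: concentration for 50% inhibition of growth. TGI: concentration producing complete growth inhibition.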
Assays:
Assay in all cases: inhibition of tumour cell growth, NCI panel, 48 h
A498 renal = tested on: A498 renal
HL-60(TB) leukemia = tested on: HL-60(TB) leukemia
LOX IMVI melanoma = tested on: LOX IMVI melanoma
MDA-MB-435 = tested on: MDA-MB-435
SW-620 colon = tested on: SW-620 colon
MCF7 breast = tested on: MCF7 breast
UO-31 renal = tested on: UO-31 renal
NCI-H460 lung = tested on: NCI-H460 lung
DU-145 prostate = tested on: DU-145 prostate
SK-MEL-5 melanoma = tested on: SK-MEL-5 melanoma
M14 melanoma = tested on: M14 melanoma
SK-OV-3 ovarian = tested on: SK-OV-3 ovarian
EKVX NSCLC = tested on: EKVX NSCLC
OVCAR-5 ovarian = tested on: OVCAR-5 ovarian
SNB-75 CNS = tested on: SNB-75 CNS
SK-MEL-28 melanoma = tested on: SK-MEL-28 melanoma
786-0 renal = tested on: 786-0 renal
TK-10 renal = tested on: TK-10 renal
MDA-MB-231 breast = tested on: MDA-MB-231 breast
OVCAR-4 ovarian = tested on: OVCAR-4 ovarian
MOLT-4 leukemia = tested on: MOLT-4 leukemia
HS 578T breast = tested on: HS 578T breast
RXF 393 renal = tested on: RXF 393 renal
HCT-116 colon = tested on: HCT-116 colon
IGROV1 ovarian = tested on: IGROV1 ovarian
NCI-H522 lung = tested on: NCI-H522 lung
ACHN renal = tested on: ACHN renal
NCI-H23 lung = tested on: NCI-H23 lung
SF-295 CNS = tested on: SF-295 CNS

## O=C(CN1CCN(C(=O)c2ccco2)CC1)Nc1ccc(Cl)cc1C(=O)c1ccccc1Cl
A498 renal
  GI50: 6.8 µM
  TGI: 22.9 µM
HL-60(TB) leukemia
  GI50: 1310 nM
  TGI: 2950 nM
LOX IMVI melanoma
  GI50: 11.1 µM
  TGI: 23.1 µM
MDA-MB-435
  GI50: 5.83 µM
  TGI: 20.6 µM
SW-620 colon
  GI50: 12 µM
  TGI: 30.6 µM
MCF7 breast
  GI50: 5.31 µM
  TGI: 21.7 µM
UO-31 renal
  GI50: 2280 nM
  TGI: 14.9 µM
NCI-H460 lung
  GI50: 13.9 µM
  TGI: 29 µM
DU-145 prostate
  GI50: 15.5 µM
  TGI: 35.2 µM
SK-MEL-5 melanoma
  GI50: 5.34 µM
  TGI: 18.6 µM
M14 melanoma
  GI50: 12.5 µM
  TGI: 28.1 µM
SK-OV-3 ovarian
  GI50: 16.1 µM
  TGI: 76.7 µM
EKVX NSCLC
  GI50: 5.53 µM
  TGI: 30 µM
OVCAR-5 ovarian
  GI50: 24 µM
  TGI: 63 µM
SNB-75 CNS
  GI50: 2730 nM
  TGI: 28.3 µM
SK-MEL-28 melanoma
  GI50: 11.6 µM
  TGI: 23.9 µM
786-0 renal
  GI50: 13.6 µM
  TGI: 42.5 µM
TK-10 renal
  GI50: 10.2 µM
  TGI: 36.2 µM
MDA-MB-231 breast
  GI50: 9.51 µM
  TGI: 46.1 µM
OVCAR-4 ovarian
  GI50: 5.91 µM
  TGI: 31.5 µM
MOLT-4 leukemia
  GI50: 2140 nM
  TGI: 5.44 µM
HS 578T breast
  GI50: 10.8 µM
  TGI: 33 µM
RXF 393 renal
  GI50: 3.85 µM
  TGI: 18 µM
HCT-116 colon
  GI50: 13 µM
  TGI: 26.9 µM
IGROV1 ovarian
  GI50: 4.23 µM
  TGI: 17.6 µM
NCI-H522 lung
  GI50: 4.16 µM
  TGI: 27.4 µM
ACHN renal
  GI50: 10.3 µM
  TGI: 43.7 µM
NCI-H23 lung
  GI50: 10.4 µM
  TGI: 62.2 µM
SF-295 CNS
  GI50: 3.13 µM
  TGI: 15.4 µM

From PubChem BioAssay (NCI)
